Literature values in patent publication US8273371B2, “Crystalline mesoporous oxide based materials useful for the fixation and controlled release of drugs” (priority 2003, dated 2012).
Where “and” joins values, the source holds several entries; their conditions need not be identical. Identical values can stand only once. Values belong to the molecule of their own block, whether it stands above or below them.

Legend:
[1] = not given; remark: listed apart in the source
[2] = ibuprofen loaded on mesoporous oxide material
[3] = from 50° C. to 130° C.
[4] = capsules with granulate of drug, surfactants, cyclodextrin, Avicel PH 101 and Primojel

solubility in water: virtually insoluble in water
SMILES: CC/C(=C(/CC)c1ccc(O)cc1)c1ccc(O)cc1 [diethylstilbestrol]

oral bioavailability [1]: good oral bioavailability
SMILES: CS(=O)(=O)c1ccc([C@@H](O)[C@@H](CF)NC(=O)C(Cl)Cl)cc1 [florfenicol, D-(threo)-1-p-methylsulfonyl phenyl-2-dichloroacetamido-3-fluoro-1-propanol]

drug release after 20 hours ([2]; after 20 hours): 60%
drug release after 24 hours ([2]; after 24 hours): 55% and 68%
maximum release at the third day ([2]; third day): 80%
SMILES: CC(C)Cc1ccc(C(C)C(=O)O)cc1 (centres unmarked) [ibuprofen]

solubility in supercritical carbon dioxide [3]: relatively poor
SMILES: CCC(C)n1ncn(-c2ccc(N3CCN(c4ccc(OCC5COC(Cn6cncn6)(c6ccc(Cl)cc6Cl)O5)cc4)CC3)cc2)c1=O (centres unmarked) [itraconazole]

drug release within 45 minutes [4]: 90%
water-solubility (in water): less than 0.01 mg/ml
SMILES: CC(C)(C)c1ccc(C(O)CCCN2CCC(C(O)(c3ccccc3)c3ccccc3)CC2)cc1 (centres unmarked) [terfenadine]
